Molecules are shown by their SMILES.

T1 sequence (P48775 whole entry): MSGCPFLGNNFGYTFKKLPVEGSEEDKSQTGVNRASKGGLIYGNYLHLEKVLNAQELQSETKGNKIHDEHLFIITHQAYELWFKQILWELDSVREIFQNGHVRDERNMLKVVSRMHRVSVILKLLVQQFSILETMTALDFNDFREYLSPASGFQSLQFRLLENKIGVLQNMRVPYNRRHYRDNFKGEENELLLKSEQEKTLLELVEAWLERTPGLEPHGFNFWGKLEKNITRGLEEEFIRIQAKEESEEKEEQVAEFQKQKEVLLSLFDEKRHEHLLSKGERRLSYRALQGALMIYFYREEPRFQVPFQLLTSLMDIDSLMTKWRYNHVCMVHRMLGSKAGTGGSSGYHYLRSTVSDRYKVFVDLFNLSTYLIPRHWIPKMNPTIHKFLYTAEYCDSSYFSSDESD

The assay concerns the target T1, TDO2 (Homo sapiens, UniProt P48775).
T1 construct: decreased levels of NFK in SW48 cells (high TDO expressing cells)
The experiment in a line: TDO2 cell assay (NFK GreenScreen, SW48 cells). It is filed as cell-based. The settings on record: SW48 cells (high TDO expressing), 200 uM tryptophan, 24 hours; Table 3; read-out: TDO2 Cell Fluor EC50.
What is called EC50 is the concentration needed to bring the measured effect to its halfway point. As for `O[C@@H]1c2ncccc2CC[C@H]1[C@H]1c2ccccc2-c2cncn21` (single isomer, unassigned) [Example 126a], the EC50 is over 25 µM.

As to `O[C@@H](C1CCCCC1)[C@@H]1c2ccccc2-c2cncn21` (single isomer, unassigned) [Example 148c], the EC50 was 0.88 µM.

`NC(=O)c1cc2n(n1)CCC(C1c3ccccc3-c3cncn31)C2O` (single isomer, unassigned) [Example 172b]: the EC50 was 1.1 µM.

For the compound `OC1COCC1C1c2ccccc2-c2cncn21` (single isomer, unassigned) [Example 26c], the EC50 was 0.71 µM.

`O[C@@H](C1CCOCC1)[C@@H]1c2ccccc2-c2cncn21` (single isomer, unassigned) [Example 138d]: the EC50 worked out at 10 µM.

With `OC1CCCC1C1c2ccc(F)cc2-c2cncn21` (single isomer, unassigned) [Example 20b], the EC50 amounted to 0.43 µM.

In the case of `OC1c2cncnc2CCC1C1c2ccccc2-c2cncn21` (single isomer, unassigned) [Example 94d], the EC50 was determined as 0.13 µM.

For the compound `CS(=O)(=O)N1CCC[C@](O)([C@@H]2c3ccccc3-c3cncn32)C1` [Example 134a, (R)-3-((S)-5H-imidazo[5,1-a]isoindol-5-yl)-1-(methylsulfonyl)piperidin-3-ol], the EC50 came to 1.1 µM.

Take `O[C@@H]1COCC[C@H]1[C@H]1c2c(F)cccc2-c2cncn21` [Example 120a, (3S,4S)-4-((S)-6-fluoro-5H-imidazo[5,1-a]isoindol-5-yl)tetrahydro-2H-pyran-3-ol]: the EC50 is over 25 µM.

On to `N#CCN1CCC(O)C(C2c3ccccc3-c3cncn32)C1` (single isomer, unassigned) [Example 58a], for which the EC50 worked out at 0.36 µM.

`CC(C)(C)OC(=O)N1CC[C@@H](O)[C@H]([C@H]2c3ccccc3-c3cncn32)C1` [Example 11a, (3S,4R)-tert-butyl 4-hydroxy-3-((S)-5H-imidazo[5,1-a]isoindol-5-yl)piperidine-1-carboxylate]: the EC50 amounted to 15 µM.

Take `OC1(C2c3ccccc3-c3cncn32)CCOC1` (single isomer, unassigned) [Example 129a]: the EC50 is over 25 µM.

`CCS(=O)(=O)N1CC(O)C(C2c3ccccc3-c3cncn32)C1` (single isomer, unassigned) [Example 40d]: the EC50 was over 25 µM.

As for `Cn1cc2c(n1)CCC(C1c3ccccc3-c3cncn31)C2O` (single isomer, unassigned) [Example 130h], the EC50 was over 25 µM.

As for `OC1CC2(COC2)C1C1c2ccccc2-c2cncn21` (single isomer, unassigned) [Example 87c], the EC50 is 6 µM.

Regarding `OC1c2cccnc2CCC1C1c2ccccc2-c2cncn21` (single isomer, unassigned) [Example 31c], the EC50 was 17 µM.

As for `NS(=O)(=O)N1CCC2(CC1)CC(C1c3ccccc3-c3cncn31)C2O` (single isomer, unassigned) [Example 181e], the EC50 was 12 µM.

Take `NS(=O)(=O)c1ccc2c(c1)C(O)C(C1c3ccccc3-c3cncn31)CC2` (single isomer, unassigned) [Example 105g]: the EC50 was 9.2 µM.

On to `CC1(C)C[C@@H](O)[C@H]1[C@@H]1c2ccccc2-c2cncn21` [Example 22e, (1R,2R)-2-((R)-5H-imidazo[5,1-a]isoindol-5-yl)-3,3-dimethylcyclobutan-1-ol], for which the EC50 is 3.5 µM.

On to `CC1(C)OCC(C2c3ccccc3-c3cncn32)C1O` (single isomer, unassigned) [Example 85e], for which the EC50 is over 25 µM.

Turning to `N#Cc1cnc2c(c1)CCC(C1c3ccccc3-c3cncn31)C2O` (single isomer, unassigned) [Example 107a], the EC50 is 17 µM.

With `OC1CCCOCC1C1c2ccccc2-c2cncn21` (single isomer, unassigned) [Example 86f], the EC50 turned out to be 0.15 µM.

Take `Cc1ccc2c(c1)-c1cncn1C2C1COCC1O` (single isomer, unassigned) [Example 171d]: the EC50 was determined as 17.7 µM.

For the origin of these results see patent US12583858B2 (Genentech, Inc., priority 2015, dated 2026).
